Results from ChEMBL document CHEMBL1135160, “Development of a genetic selection for catalytic antibodies” (Bioorg Med Chem Lett, 2002).

How the values were obtained:
Escherichia coli = assay: Concentration required to sustain growth of Escherichia coli HDU-78; 1-10 nM; type: functional, organism-based
[1] = Kinetic parameter for rate of conversion to PABA was determined; type: ADME

| Km [1] [µM] | k cat [1] [s⁻¹] | SMILES | Concentration (Escherichia coli) [nM] |
| --- | --- | --- | --- |
| – | – | Nc1ccc(C(=O)O)cc1 | 10 |
| 150 | 0.000115 | CC(=O)CC(C)(O)CCOC(=O)Nc1ccc(C(=O)O)cc1 (stereo not drawn) | – |
